Source: patent US20220401324A1, “COSMETIC PREPARATION WITH ANISIC ACID AND LEVULINIC ACID, HAVING SELECTIVE ANTIMICROBIAL EFFECT” (BEIERSDORF AG, priority 2019, published 2022)

Columns and labels:
[1] = system: S. epidermidis (DSM 1798); experiment: Suspension test with S. epidermidis; format: cell-based, Staphylococcus epidermidis; conditions: BHI medium, sampled after 1 h, 3 h and 6 h
Protocol: (§1) The effect of the formulations according to the invention was further tested in suspension tests with S. epidermidis and C. acnes. […] These liquid stock cultures were used to prepare a first passage. Here, a sterile disposable inoculation loop was used to streak the relevant culture on an agar plate (C. acnes: COST agar, S. epidermidis: COAST agar) and the culture was then incubated. The cultures of C. acnes were incubated at 37° C. for 5 days, whereas the cultures of S. epidermidis were incubated at 37° C. for 24 h. Said first passage was then used to prepare a second passage by picking of a few colonies using a sterile disposable inoculation loop and subsequent streaking thereof onto a new agar plate. Said second passage was then incubated at the appropriate temperature for 5 days or 24 h. The second passage obtained was then used for the suspension test.
(§2) To prepare the suspensions, a few colonies of the second passage were removed using a sterile inoculation loop and added to 10 mL of medium in a baffled flask containing 5 g of glass beads (4 mm diameter) and gently shaken for 3 min. Thereafter, optical density (OD) was used to set the approximate number of cells per mL. Optical density was determined at 600 nm using an Eppendorf photometer. The OD obtained was adjusted to a value around 0.8 (±0.01) and then diluted again 1:50. […]

C. acnes (DSM 1897) = experiment: Suspension test with C. acnes; format: cell-based, Cutibacterium acnes; conditions: anaerobic medium, sampled after 1 h, 3 h and 6 h
Protocol: as §1, §2

## COc1ccc(C(=O)O)cc1 [anisic acid, 4-methoxybenzoic acid]
[1]
  growth of the aerobic bacterium S. epidermidis (FIGS. 4 and 5): does not significantly affect the growth
C. acnes (DSM 1897)
  cell count of the anaerobic bacterium C. acnes (FIGS. 4 and 5): does not lead to a reduction in the cell count

## CC(=O)CCC(=O)O [levulinic acid, 4-oxopentanoic acid]
[1]
  growth of the aerobic bacterium S. epidermidis (FIGS. 4 and 5): does not significantly affect the growth
C. acnes (DSM 1897)
  cell count of the anaerobic bacterium C. acnes (FIGS. 4 and 5): does not lead to a reduction in the cell count
